This note sets out measurements from patent publication US11643421B2, “Process for the preparation of tricyclic PI3K inhibitor compounds and methods for using the same for the treatment of cancer” (priority 2015, dated 2023).

Data set [1] deals with PAK2 (Homo sapiens, UniProt Q13177). Briefly: biochemical. Particulars: read-out: % inhib.
Data set [2] is described as follows: Plasma protein binding (PPB %). The conditions noted are these: dog. Type of data set: in vitro ADME. The protocol:
The hepatocyte stability of compound IIIat was evaluated across preclinical species. Certain in vivo pharmacokinetic parameters were also evaluated. […] Male Sprague-Dawley rats, female CD-1 mice, male cynomolgus monkeys and beagle dogs were dosed intravenously with 1 mg/kg of compound IIIat prepared in 60% PEG400/10% Ethanol. Compound IIIat was administered orally (PO) at the indicated dose in 0.5% methylcellulose with 0.2% Tween 80 (MCT).

In data set [3] the test system is high-grade gliomas. In words: Phase I study, best overall response (RANO). The conditions noted are these: evaluable patients. In kind it is in vivo, human. The protocol: Tumor response was determined by either an assessment of FDG-PET or by Response Assessment in Neuro-Oncology (RANO).
Tumor response under the RANO guidelines was done generally in accordance with the Wen method (Wen P Y, Macdonald D R, Reardon D A, et al. “Updated response assessment criteria for high-grade gliomas: Response Assessment in Neuro-Oncology Working Group”, J Clin Oncol 2010; 28:1963-72) where the disease is categorized as “complete response”, “partial response”, “stable disease” and “progression”. Among other factors, a complete response required all of the following: complete disappearance of all enhancing measurable and non-measurable disease sustained for at least 4 weeks; no new lesions; and stable or improved non-enhancing (T2/FLAIR) lesions. A partial response required, among other factors, ≥50% decrease, compared with baseline, in the sum of the products of the perpendicular diameters of all measurable enhancing lesions (such as measured by MRI) sustained for at least 4 weeks; no progression of non-measurable disease; and no new lesions.

In data set [4] the test system is pS6. Briefly: PI3K pathway modulation in GS2 tumors, western blot. In kind it is in vivo, mice. Particulars: 15 mg/kg PO daily 4 weeks. A general note: A western blot detects proteins with antibodies after separation by electrophoresis.
The subject of data set [5] is p4EBP1. Described as above. In kind it is in vivo, mice. The conditions noted are these: 15 mg/kg PO daily 4 weeks.
The target in data set [6] is T1, human BCRP (Homo sapiens, UniProt Q9UNQ0).
T1 construct: host or cells: BCRP-MDCKII (canine kidney)
Briefly: Transport assay in BCRP-MDCKII cell monolayers. Type of data set: in vitro ADME. Particulars: 2-hour incubation. The protocol: MDR1-MDCKI cells were licensed from the NCI (National Cancer Institute, Bethesda, Md.) and Bcrp1-MDCKII, BCRP-MDCKII and Mdr1a-LLC-PK1 cells were obtained from the Netherlands Cancer Institute (Amsterdam. The Netherlands). […] The compound was dissolved in transport buffer consisting of Hank's balanced salt solution (HBSS) with 10 mM HEPES (Invitrogen Corporation, Grand Island, N.Y.). Lucifer Yellow (Sigma-Aldrich, St. Louis, Mo.) was used as the paracellular and monolayer integrity marker. […] The efflux ratio (ER) was calculated (Papp, B-A/Papp, A-B).

In data set [7] the test system is U87 MG Merchant (MG/M) human glioblastoma xenografts. The method, then: All in vivo studies were conducted in compliance with Genentech's Institutional Animal Care and Use Committee. […] Cells in log-phase growth were harvested and resuspended in HBSS:Matrigel (BD Biosciences; Franklin Lakes, N.J.) (1:1, v:v) for injection into female NCr nude mice (Taconic Farms, Cambridge City, Ind.) aged 20 weeks. Animals received five million cells subcutaneously in the right lateral thorax in 0.1 mL. […] The inhibitor was formulated once weekly in 0.5% methylcellulose and 0.2% Tween-80 at concentrations needed for target doses in a volume of 0.2 mL. All formulations were stored in a refrigerator and brought to room temperature and mixed well by vortex before oral administration by gavage once daily for 23 days. Tumor volumes were calculated from perpendicular length and width caliper measurements using the formula: Tumor Volume (mm^3)=0.5×(Length×Width^2). Changes in body weights are reported as a percentage change from the starting weight.
Log 2(tumor volume) growth traces were fitted to each dose group with restricted cubic splines for the dose and fixed time effects. […] Fitted tumor volumes were plotted in the natural scale in Prism (version 5.0b for Mac) (GraphPad Software; La Jolla, Calif.). Linear mixed-effects analysis was also employed using R to analyze the repeated measurement of body weight changes from the same animals over time.
The mice control group was administered the vehicle in the absence of the drug once at the same dosage schedule. Changes in tumor volumes over time by dose for each compound are depicted in FIG. 3 as cubic spline fits generated via Linear Mixed Effects analysis of log-transformed volumes.

Data set [8] is described as follows: Plasma protein binding by equilibrium dialysis. In kind it is in vitro ADME. Particulars: mouse, plasma (pooled), pH 7.4, n=3, mean±standard deviation, read-out: free fraction (%) in mouse plasma. The protocol: Plasma samples were equilibrated with phosphate-buffered saline (pH 7.4) at 37° C. in 90% humidity and 5% CO2 for 4 hours. […] Incubations were performed in triplicate. Parameters are presented as mean±standard deviation.
For orientation: In equilibrium dialysis only unbound substance equilibrates across the membrane.

Where [9] appears, read: 2 hours after final administration.

T1 sequence (Q9UNQ0 whole entry): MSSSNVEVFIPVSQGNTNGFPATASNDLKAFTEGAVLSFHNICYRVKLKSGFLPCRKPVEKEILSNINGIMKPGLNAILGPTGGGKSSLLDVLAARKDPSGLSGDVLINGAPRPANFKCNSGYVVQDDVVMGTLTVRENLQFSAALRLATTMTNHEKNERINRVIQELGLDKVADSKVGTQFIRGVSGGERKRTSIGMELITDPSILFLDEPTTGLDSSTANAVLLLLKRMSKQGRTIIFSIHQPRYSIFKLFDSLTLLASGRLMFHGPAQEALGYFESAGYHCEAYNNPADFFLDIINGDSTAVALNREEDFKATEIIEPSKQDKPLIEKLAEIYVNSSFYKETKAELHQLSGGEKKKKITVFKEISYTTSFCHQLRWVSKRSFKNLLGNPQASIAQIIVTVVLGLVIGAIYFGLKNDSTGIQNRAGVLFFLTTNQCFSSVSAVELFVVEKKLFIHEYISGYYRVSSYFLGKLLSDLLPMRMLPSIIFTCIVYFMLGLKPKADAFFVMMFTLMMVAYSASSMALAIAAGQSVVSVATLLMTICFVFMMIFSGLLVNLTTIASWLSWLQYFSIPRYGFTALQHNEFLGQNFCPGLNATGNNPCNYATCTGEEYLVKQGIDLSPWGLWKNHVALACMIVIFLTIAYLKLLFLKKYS
Sequence of PAK2 (Q13177 whole entry): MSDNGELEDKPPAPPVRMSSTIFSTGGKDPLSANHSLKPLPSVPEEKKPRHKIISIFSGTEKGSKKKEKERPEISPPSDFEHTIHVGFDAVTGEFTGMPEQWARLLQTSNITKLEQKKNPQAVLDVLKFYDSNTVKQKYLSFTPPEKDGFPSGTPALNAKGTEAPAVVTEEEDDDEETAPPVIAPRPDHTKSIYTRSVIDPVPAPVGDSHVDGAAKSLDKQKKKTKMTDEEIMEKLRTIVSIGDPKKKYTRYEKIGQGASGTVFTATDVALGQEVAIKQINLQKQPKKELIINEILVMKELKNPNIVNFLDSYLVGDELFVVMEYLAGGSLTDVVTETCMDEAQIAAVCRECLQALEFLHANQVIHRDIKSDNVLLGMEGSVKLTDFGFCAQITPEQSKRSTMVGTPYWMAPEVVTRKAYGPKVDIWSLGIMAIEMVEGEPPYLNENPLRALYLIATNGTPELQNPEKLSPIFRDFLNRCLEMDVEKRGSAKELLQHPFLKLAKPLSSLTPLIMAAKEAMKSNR

As for `CC1(C)OCCn2c1nc1c(N3CCOCC3)nc(-c3cnc(N)nc3)nc12` [GDC-0084, 5-(6,6-dimethyl-4-morpholino-8,9-dihydro-6H-[1,4]oxazino[3,4-e]purin-2-yl)pyrimidin-2-amine], the inhibition at 1 µM in data set [1] came to 3%. In data set [2], this compound showed a fraction unbound of 0.34. For the same compound, in data set [3], the “best overall response of progressive disease, patients” value worked out at 26 patients; the “best overall response of progressive disease, percent” value came to 55.3%; the “best overall response stable disease, patients” value was determined as 19 patients; the “best overall response stable disease, percent” value turned out to be 40.4%. In addition, the “Suppression of pS6 in GS2 tumors” value in data set [4] (setting [9]) worked out at 35%. Besides, the “pS6 level in GS2 tumors” value in data set [4] (8 hours post-dose) is “back to baseline levels”. Moreover, the “Suppression of p4EBP1 in GS2 tumors” value in data set [5] (setting [9]) was 43%. The “p4EBP1 level in GS2 tumors” value in data set [5] (8 hours post-dose) is “back to baseline levels”. Besides, in data set [6], the Papp A→B at 2 h, 5 μM worked out at 23.2 ± 5.4 ×10⁻⁶ cm/s and the Papp B→A at 2 h, 5 μM came out at 16 ± 1.1 ×10⁻⁶ cm/s. Besides, the “tumor response at highest dose” value in data set [7] (17.9 mg/kg dose level) is on record as “tumor regressions”. The tumor growth inhibition result in data set [7] (0.45-17.9 mg/kg oral, 23 days) was “significant and dose-dependent tumor growth inhibition”. Besides, in data set [7] (mouse, in vivo), the tolerability entry was “well tolerated”. Further, the “dose level at which tumor growth inhibition was first observed” value in data set [7] (oral dose escalation) was determined as 2.2 mg/kg. For the same compound, the fraction unbound at 4 h, 5 µM in data set [8] is 0.295 ± 0.027.

Broadly, the Papp A→B is the apparent permeability from the apical to the basolateral side of a cell layer. Low values mean poor permeation, high ones ready permeation. Broadly, the Papp B→A is the apparent permeability from the basolateral to the apical side of a cell layer.
